The text below walks through data of patent publication US6514991B2, “Phenyl-oxo-tetrahydroquinolin-3-yl beta-3 adrenergic receptor agonists” (Wyeth, priority 2000, dated 2003).

In the assay the target is T1, β3-AR (Homo sapiens, UniProt P13945).
T1 construct: Full-length β3-AR clones (402 amino acids) containing the last 6 amino acids of hβ3-AR are prepared; expressed in transfected cells; host or cells: CHO cells
Kind of assay: cAMP accumulation (SPA) in CHO cells transfected with β3-AR. The class given is cell-based. Particulars: for EC50: CHO cells transfected with human β3-AR, cAMP, 30 min incubation, 10^-9 to 10^-5 M; for IA(β3): maximal response relative to maximal response of isoproterenol at 10^-5 M. The procedure:
The ability of the compounds of this invention to treat or inhibit disorders related to insulin resistance or hyperglycemia was confirmed with representative compounds of this invention in the following standard pharmacological test procedures, which measured the binding selectivity of the β1-, β2-, and β3-AR. Binding to the receptors was measured in Chinese Hamster ovary (CHO) cells that were transfected with β1-, β2-, and β3-AR's. The following briefly summarizes the procedures used and results obtained.
cDNA was constructed by ligating four polymerase chain reaction (PCR) products using the following primers: an ATG-Narl fragment, sense primer 5′-[…]3′ and anti-sense primer 5′ […]3′; a Narl-Accl fragment, 5′[…]3′ as sense and 5′[…]3′ as anti-sense primer; an Accli-Styl fragment, sense primer 5° […]3′ and anti-sense primer 5′[…]3′ and a Styl-TAG fragment, with sense primer 5° […]3′ and anti-sense primer 5° […]3′. The corresponding primer sequences are described in Mantzoros, C. S., et.al., Diabetes, 1996, 45, 909-914. The four fragments are ligated into a pUC 18 plasmid (Gibco-BRL) and sequenced. Full-length β3-AR clones (402 amino acids) containing the last 6 amino acids of hβ3-AR are prepared with the β3-βARpcDNA3 from ATTC.
Clones expressing receptor levels of 70 to 110 fmoles/mg protein were used in the test procedures. CHO cells were grown in 24-well tissue culture plates in Dulbecco's Modified Eagle Media with 10% fetal bovine serum, MEM non-essential amino acids, Penicillin-Streptomycin and Geneticin. On the day of test procedure, growth medium was replaced with preincubation media (Dulbecco's Modified Eagle Media) and incubated for 30 minutes at 37° C. Pre-incubation medium was replaced with 0.2 ml treatment medium containing DMEM media containing 250 μM IBMX (isobutyl-1-methylxantine) plus 1 mM ascorbic acid with test compound dissolved in DMSO. Test compounds were assayed over a concentration range of 10^−9 M to 10^−5M for β3-AR transfected cells and 10^−8 to 10^−4 M for […] transfected cells. Isoproterenol (10^−5 M) was used as an internal standard for comparison of activity. Cells were incubated at 37° C. on a rocker for 30 min with the β3-AR transfected cells and 15 min with β1-AR and β2-AR transfected cells. Incubation was stopped by the addition of 0.2N HCl and the acid was neutralized with 2.5N NaOH. The plates, containing the cells and neutralized media, were stored at −20° C. until ready to test for cAMP using the SPA test kit (Amersham).
Data collected from the SPA test procedure were analyzed as percent of the maximal isoproterenol response at 10^−5 M. Activity curves were plotted using the SAS statistical and graphics software.
(Cyclic AMP is a second messenger, typically raised through Gs and lowered through Gi signalling.)

T1 sequence (P13945 whole entry): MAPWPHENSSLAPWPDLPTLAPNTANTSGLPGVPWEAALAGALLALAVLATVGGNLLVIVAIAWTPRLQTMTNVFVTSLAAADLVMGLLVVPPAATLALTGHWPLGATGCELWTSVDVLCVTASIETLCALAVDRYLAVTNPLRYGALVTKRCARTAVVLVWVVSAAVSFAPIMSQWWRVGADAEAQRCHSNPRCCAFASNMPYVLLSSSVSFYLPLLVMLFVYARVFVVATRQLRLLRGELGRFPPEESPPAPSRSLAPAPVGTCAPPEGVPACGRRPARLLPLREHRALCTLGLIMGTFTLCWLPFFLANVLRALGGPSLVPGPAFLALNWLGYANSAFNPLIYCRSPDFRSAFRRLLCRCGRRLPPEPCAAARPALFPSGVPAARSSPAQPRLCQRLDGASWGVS

For the molecule `CCOC(=O)CC1Cc2cc(-c3cccc(CNC[C@H](O)c4ccc(O)c(NS(C)(=O)=O)c4)c3)ccc2NC1=O` (some centres unmarked) [Example 2], the EC50 was determined as 90 nM and the “IA(β3)” value is 1.0.
Taken in the same sequence, the figures for `COC(=O)CC1Cc2ccc(-c3ccc(CNC[C@H](O)c4ccc(O)c(NS(C)(=O)=O)c4)cc3)cc2NC1=O` (stereo partly drawn) [Example 1, [7-(4-{[(2R)-2-Hydroxy-2-(4-hvdroxy-3-methanesulfonylamino-phenyl)-ethylamino]-methyl}-phenyl)-2-oxo-1,2,3,4-tetrahydro-quinolin-3-yl]-acetic Acid Methyl Ester] were 40 nM and 1.1.
The corresponding values for “Ethyl [6-(4-{[(2R)-2-hydroxy-2-{4-hydroxy-3-[(methylsulfonyl)amino]-phenyl}ethyl)amino]methyl}phenyl)-2-oxo-1,2,3,4-tetrahydroquinolin-3-yl]acetate [Example 4]” are 70 nM and 1.0.
Taken in the same sequence, the figures for `COC(=O)CC1Cc2ccc(-c3cccc(CNC[C@H](O)c4ccc(O)c(NS(C)(=O)=O)c4)c3)cc2NC1=O` (stereo partly drawn) [Example 3, [7-(3-{[(2R)-2-Hydroxy-2-(4-hydroxy-3-methanesulfonylamino-phenyl)-ethylamino]-methyl}-phenyl)-2-oxo-1,2,3,4-tetrahydro-quinolin-3-yl]-acetic acid methyl ester] were 60 nM and 1.0.

Usually EC50 stands for the midpoint of the concentration-response curve.
